Experimental data published in patent US20140023713A1, “CLATHRATE COMPLEX OF CYCLODEXTRIN OR ARABINOGALACTAN WITH 9-PHENYL-SYM-OCTA-HYDROSELENOXANTENE” (priority 2011, published 2014).
“Also recorded” adds a separate entry of the source. Where two headings read alike, the source gives them in different places.

How the values were obtained:
CFU-C-8 = format: in vivo, mice
Procedure: A study on cytoprotective effect of the compound 1 was conducted.

hematopoietic stem cells = assay: cloning method of hematopoietic stem cells in the spleens of irradiated mice (spleen colony formation by donor bone marrow cells, radioprotection); format: in vivo
Procedure: The study of radioprotective and cytoprotective properties of compound 1 and the complex compound 2 (ratio 1:3) by cloning method of hematopoietic stem cells in the spleens of irradiated mice.
1) Formation of spleen colonies by bone marrow cells of mice that received Compound 2 multiple times prior to irradiation at a dose of 1.5 Gy. Unlike compound 1, the complex form of compound 2 is water-soluble.
Compound 2 was administered orally to mice-donors of bone marrow at doses of 5 mg/kg and 2 mg/kg in 0.2 ml physiological solution for 5 days. […] Control mice received 0.2 ml of physiological solution for 5 days. 7 days after the last injection, mice were irradiated (1.5 Gy at installation “Luch-1”). 15 minutes later the animals were sacrificed, a bone marrow cell suspension was prepared and injected to lethally irradiated recipient mice for determination of the colony-forming ability.
2) Formation of spleen colonies by bone marrow cells of mice that received Compound 1, suspended in a starch gel, multiple times prior to irradiation at a dose of 1.5 Gy.
In the second series of experiments using the same experimental scheme and similar doses, the Compound 1 suspension was prepared in 2% starch gel. 90 female mice (CBA×C57B1/6) F1 were used in this study: 18 donors and 72 recipients.

| SMILES | CFU-C-8 Quantity on 10^5 bone marrow cells of donors (CFU-C-8; mouse, in vivo) | CFU-C-8 Quantity on 10^5 bone marrow cells of donors (CFU-C-8; Compound 1 5 mg/kg 7 days prior to single Cisplatin 5 mg/kg) | CFU-C-8 Quantity on 10^5 bone marrow cells of donors (CFU-C-8; Compound 1 5 mg/kg, no Cisplatin) | adaptive response of CFU-S-8 to cisplatin (in words) (CFU-C-8; administered 7 days prior to a single injection of cisplatin) | Quantity of colonies on 105 cells of bone marrow M ± m (hematopoietic stem cells; Compound 1 2 mg/kg + Starch gel 2%, no irradiation, 2 mg/kg) | Quantity of colonies on 105 cells of bone marrow M ± m (hematopoietic stem cells; Compound 1 2 mg/kg + Starch gel 2%, no irradiation, listed as compound 1, 2 mg/kg) | Quantity of colonies on 105 cells of bone marrow M ± m (hematopoietic stem cells; Compound 1 2 mg/kg + Starch gel 2%, then 1.5 Gy irradiation) | Quantity of colonies on 105 cells of bone marrow M ± m (hematopoietic stem cells; Compound 1 5 mg/kg + Starch gel 2%, no irradiation, 5 mg/kg) | Quantity of colonies on 105 cells of bone marrow M ± m (hematopoietic stem cells; Compound 1 5 mg/kg + Starch gel 2%, no irradiation, listed as compound 1, 5 mg/kg) | Quantity of colonies on 105 cells of bone marrow M ± m (hematopoietic stem cells; Compound 1 5 mg/kg + Starch gel 2%, then 1.5 Gy irradiation) | adaptive response of hematopoietic stem cells to irradiation / radioprotective effect (in words) (hematopoietic stem cells; treatment for 5 days prior to irradiation 1.5 Gy, both doses (5 and 2 mg/kg)) |
| --- | --- | --- | --- | --- | --- | --- | --- | --- | --- | --- | --- |
| N.N.[Cl][Pt][Cl] [Cisplatin, reference compound] | 6.4 ± 0.6 |  |  |  |  |  |  |  |  |  |  |
| c1ccc(C2C3=C(CCCC3)[Se]C3=C2CCCC3)cc1 [Compound 1, 9-phenyl-sym-octahydroselenoxanthene] |  | 9.6 ± 0.3 | 12.6 ± 0.6 | distinct adaptive response | 24 ± 1.3 | statistically significant increase in the number of colonies | 9.1 ± 0.3 | 28.7 ± 1.1 | statistically significant increase in the number of colonies | 9.5 ± 0.8 | absent; also recorded: does not provide the radioprotective effect |
